PMC6804443 (Acta Pharmaceutica Sinica. B, 2019)
Read-outs that look alike come from different tables or passages of the source.

Tests used:
[1] = target: T1, OAT2 (Homo sapiens, UniProt Q9Y694); assay: OAT2 inhibition by antibiotics, transfected HEK293 cells, tanshinol as substrate; type: in vitro ADME; settings: for inhibition at 1000 µM: HEK293, read-out: Inhibition of OAT2
T1 sequence (Q9Y694 1-546 isoform Q9Y694-2): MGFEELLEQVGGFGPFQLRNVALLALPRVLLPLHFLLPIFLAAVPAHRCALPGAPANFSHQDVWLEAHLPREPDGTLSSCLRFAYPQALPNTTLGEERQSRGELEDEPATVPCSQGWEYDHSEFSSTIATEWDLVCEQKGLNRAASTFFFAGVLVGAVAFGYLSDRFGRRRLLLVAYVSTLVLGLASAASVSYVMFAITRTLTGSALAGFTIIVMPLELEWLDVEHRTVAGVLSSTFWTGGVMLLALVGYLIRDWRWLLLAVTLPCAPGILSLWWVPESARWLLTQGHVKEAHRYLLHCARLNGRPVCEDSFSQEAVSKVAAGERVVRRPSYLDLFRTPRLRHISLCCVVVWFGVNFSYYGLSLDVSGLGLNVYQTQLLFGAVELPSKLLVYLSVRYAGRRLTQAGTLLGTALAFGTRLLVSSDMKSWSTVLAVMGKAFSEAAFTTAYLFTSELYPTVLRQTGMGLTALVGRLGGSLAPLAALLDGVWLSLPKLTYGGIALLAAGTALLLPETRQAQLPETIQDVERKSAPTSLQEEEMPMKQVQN

[2] = target: T2, OATP1B3 (Homo sapiens, UniProt Q9NPD5); settings: for Inhibition DDI index, OATP1B3: antibiotic as perpetrator, salvianolic acid B (X10) as victim, (Cmax × fu-p × R)/IC50
T2 sequence (Q9NPD5 1-702): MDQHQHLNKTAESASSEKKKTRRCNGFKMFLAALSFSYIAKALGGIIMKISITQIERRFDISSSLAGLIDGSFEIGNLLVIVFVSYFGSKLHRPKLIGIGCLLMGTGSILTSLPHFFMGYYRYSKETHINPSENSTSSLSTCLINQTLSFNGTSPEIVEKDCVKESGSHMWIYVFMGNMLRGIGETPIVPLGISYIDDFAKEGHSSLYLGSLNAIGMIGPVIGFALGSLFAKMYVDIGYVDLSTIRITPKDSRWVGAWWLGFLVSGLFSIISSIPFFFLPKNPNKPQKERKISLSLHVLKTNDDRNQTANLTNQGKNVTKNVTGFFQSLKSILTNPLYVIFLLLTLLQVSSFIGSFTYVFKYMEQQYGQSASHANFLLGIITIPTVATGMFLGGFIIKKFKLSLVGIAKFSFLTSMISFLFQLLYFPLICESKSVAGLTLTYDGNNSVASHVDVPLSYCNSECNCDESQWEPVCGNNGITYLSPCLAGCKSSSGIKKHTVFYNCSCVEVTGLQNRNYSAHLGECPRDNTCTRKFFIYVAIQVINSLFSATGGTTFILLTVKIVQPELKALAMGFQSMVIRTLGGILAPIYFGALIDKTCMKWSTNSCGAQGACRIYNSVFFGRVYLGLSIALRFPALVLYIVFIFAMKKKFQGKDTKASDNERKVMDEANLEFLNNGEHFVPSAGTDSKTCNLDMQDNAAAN

[3] = target: T3, OAT3 (Homo sapiens, UniProt Q8TCC7); assay: Reported in vitro interaction with OAT3; type: in vitro ADME; settings: estimated from reported Cmax, fu-p and literature potency
T3 sequence (Q8TCC7 1-542): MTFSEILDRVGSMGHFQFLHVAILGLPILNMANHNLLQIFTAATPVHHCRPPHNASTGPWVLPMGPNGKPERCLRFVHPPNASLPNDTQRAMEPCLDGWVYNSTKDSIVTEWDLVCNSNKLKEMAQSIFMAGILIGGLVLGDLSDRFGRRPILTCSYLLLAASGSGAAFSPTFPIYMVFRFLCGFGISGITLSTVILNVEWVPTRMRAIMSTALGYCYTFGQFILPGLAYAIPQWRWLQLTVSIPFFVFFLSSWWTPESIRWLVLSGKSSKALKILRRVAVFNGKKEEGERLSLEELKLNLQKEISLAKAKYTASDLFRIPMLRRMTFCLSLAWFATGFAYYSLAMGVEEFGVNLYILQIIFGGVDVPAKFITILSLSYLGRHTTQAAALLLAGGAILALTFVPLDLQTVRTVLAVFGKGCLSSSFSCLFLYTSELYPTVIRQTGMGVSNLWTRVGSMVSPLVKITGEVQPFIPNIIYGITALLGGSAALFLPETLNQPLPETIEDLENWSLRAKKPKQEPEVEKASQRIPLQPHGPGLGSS

[4] = type: in vivo; settings: human; XueBiJing at label dose 100 mL
[5] = cited from earlier work; for fu-p (unbound fraction in plasma): human plasma; for Cmax / VSS / t1/2 / Major elimination route / fe-U (fraction of dose excreted unchanged into urine): human; for Cmax / VSS / t1/2: XueBiJing 100 mL via 75-min intravenous infusion
[6] = tested on: P450 enzymes, UGTs, SULTs, OATP1B1/1B3, OAT1/3, OCT2, MATE1/2-K, MDR1, BCRP; settings: cited from earlier work
[7] = XueBiJing compounds, cited from earlier work; for LogD(7.4): pH 7.4
[8] = XueBiJing compounds; cited from earlier work
[9] = target: T4, UGT2B15 (Homo sapiens, UniProt P54855); type: in vitro ADME
T4 sequence (P54855 24-530): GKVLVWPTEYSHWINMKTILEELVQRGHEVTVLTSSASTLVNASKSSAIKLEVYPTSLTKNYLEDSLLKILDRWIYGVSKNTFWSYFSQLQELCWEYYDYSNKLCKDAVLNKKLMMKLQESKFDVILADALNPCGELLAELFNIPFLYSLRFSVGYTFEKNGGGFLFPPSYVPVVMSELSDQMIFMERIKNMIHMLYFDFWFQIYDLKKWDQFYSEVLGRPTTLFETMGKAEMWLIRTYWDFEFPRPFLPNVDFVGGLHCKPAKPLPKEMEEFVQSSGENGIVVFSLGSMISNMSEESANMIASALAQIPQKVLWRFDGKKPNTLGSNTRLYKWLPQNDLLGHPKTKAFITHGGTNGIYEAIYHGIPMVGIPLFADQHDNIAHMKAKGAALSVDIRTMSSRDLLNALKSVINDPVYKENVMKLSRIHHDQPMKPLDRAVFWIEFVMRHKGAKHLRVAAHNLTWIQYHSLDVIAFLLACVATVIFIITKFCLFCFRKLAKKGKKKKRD

[10] = target: T2, OATP1B3; settings: IC50, OATP1B3 [X10], mean ± SD (n = 3)
[11] = target: T2, OATP1B3; assay: in vitro
[12] = target: T5, OAT1 (Homo sapiens, UniProt Q4U2R8); assay: OAT1 inhibition by antibiotics, transfected HEK293 cells, tanshinol as substrate; settings: for Inhibition DDI index, OAT1: antibiotic as perpetrator, tanshinol (X8) as victim, (Cmax × fu-p × R)/IC50
T5 sequence (Q4U2R8 1-563): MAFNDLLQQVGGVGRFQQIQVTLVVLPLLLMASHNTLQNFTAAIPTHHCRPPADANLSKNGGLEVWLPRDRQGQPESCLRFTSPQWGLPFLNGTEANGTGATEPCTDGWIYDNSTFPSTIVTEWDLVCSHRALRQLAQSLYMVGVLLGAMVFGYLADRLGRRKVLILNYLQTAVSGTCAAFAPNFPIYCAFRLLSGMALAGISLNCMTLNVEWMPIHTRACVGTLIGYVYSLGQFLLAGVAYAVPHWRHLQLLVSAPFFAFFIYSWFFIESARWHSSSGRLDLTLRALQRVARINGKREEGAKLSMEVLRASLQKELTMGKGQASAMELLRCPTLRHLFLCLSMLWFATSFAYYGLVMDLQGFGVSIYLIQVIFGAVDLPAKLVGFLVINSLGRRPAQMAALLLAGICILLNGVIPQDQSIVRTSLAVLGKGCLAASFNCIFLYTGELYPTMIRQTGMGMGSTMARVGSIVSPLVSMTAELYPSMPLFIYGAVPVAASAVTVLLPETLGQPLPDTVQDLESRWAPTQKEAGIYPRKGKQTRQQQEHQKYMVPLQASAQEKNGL

[13] = tested on: ALDH; type: in vitro ADME; settings: human, pooled human liver cytosol
[14] = target: T5, OAT1; assay: OAT1 inhibition by XueBiJing compounds, transfected HEK293 cells [PAH]; type: in vitro ADME
[15] = target: T1, OAT2; type: in vitro ADME
[16] = tested on: CYP2B6; assay: CYP2B6 induction by XueBiJing compounds in cryopreserved human hepatocytes; type: in vitro ADME; settings: higher concentrations; range over the named compounds and enzymes
[17] = tested on: CYP3A4; settings: higher concentrations; range over the named compounds and enzymes

Inhibition DDI index, OATP1B3 [2]	IC50 [10]	IC50 [12]	Compound	fu-p (unbound fraction in plasma) [5]	Cmax [5]	VSS [5]	t1/2 [5]	Major elimination route [5]	Related metabolism and transport data (substrate status) [6]	pKa [7]	LogD(7.4) [7]	Membrane permeability [8]	further results
0.60			teicoplanin [A26]										IC50 ([1]; read-out: IC50, OAT2 [X8], mean ± SD (n = 3)): 64 ± 14 µM; IC50 ([2]; read-out: IC50, OATP1B3 [X10], mean ± SD (n = 3)): 8 ± 2 µM; Inhibition of OATP1B3 ([2]; test concentration 100 μmol/L): > 90%
			CC(=O)NC[C@H]1CN(c2ccc(N3CCOCC3)c(F)c2)C(=O)O1 [A29, linezolid]										DDI index, inhibiting OAT3 [3]: ≥ 1.0
			C[C@@]12C[C@@]3(O)O[C@@H](O1)[C@]1(COC(=O)c4ccccc4)[C@H]3C[C@@]12O[C@@H]1O[C@H](CO)[C@@H](O)[C@H](O)[C@H]1O [X2, paeoniflorin]	82%	18200 nM	0.19 L/kg	1.1 h	Renal excretion, GF-based	Not the substrate of P450 enzymes, UGTs, SULTs, OATP1B1/1B3, OAT1/3, OCT2, MATE1/2-K, MDR1, or BCRP	11.5	0.1	Poor	Unbound Cmax [4]: 15000 nM; fe-U (fraction of dose excreted unchanged into urine) [5]: 63%
			C[C@]12C[C@@H](O)[C@@H]3C[C@@]1(O[C@@H]1O[C@H](CO)[C@@H](O)[C@H](O)[C@H]1O)[C@@]3(COC(=O)c1ccccc1)C(=O)O2 [X4, albiflorin]	83%	800 nM	0.08 L/kg	0.7 h	Renal excretion, GF-based	Not the substrate of P450 enzymes, UGTs, SULTs, OATP1B1/1B3, OAT1/3, OCT2, MATE1/2-K, MDR1, or BCRP	12.8	−0.9	Poor	fe-U (fraction of dose excreted unchanged into urine) [5]: 62%
1.07	26 ± 9 µM	173 ± 27 µM	Cc1onc(-c2c(F)cccc2Cl)c1C(=O)N[C@@H]1C(=O)N2[C@@H]1SC(C)(C)[C@@H]2C(=O)O [A19, flucloxacillin]										IC50 [9]: 336 ± 83 µM; inhibition at 1000 μmol/L ([9]; human, cDNA-expressed UGT2B15): 60 to 88%; IC50 [13]: 45 ± 6 µM; inhibition at 1000 μmol/L [13]: 56 to 88%; IC50 [1]: 729 ± 131 µM; inhibition at 1000 µM [1]: 60 to 84%; inhibition at 1000 μmol/L [11]: > 90%; Inhibition DDI index, OAT1 [12]: 0.16; inhibition at 1000 μmol/L ([12]; human): ≥ 90%
4.64	11 ± 2 µM	99 ± 31 µM	Cc1onc(-c2ccccc2)c1C(=O)N[C@@H]1C(=O)N2[C@@H]1SC(C)(C)[C@@H]2C(=O)O [A17, oxacillin]										IC50 [13]: 465 ± 72 µM; inhibition at 1000 μmol/L [13]: 56 to 88%; IC50 [1]: 467 ± 97 µM; inhibition at 1000 µM [1]: 60 to 84%; Inhibition DDI index, OAT2 ([1]; antibiotic as perpetrator, tanshinol (X8) as victim, (Cmax × fu-p × R)/IC50): 0.11; inhibition at 1000 μmol/L [11]: > 90%; Inhibition DDI index, OAT1 [12]: 0.52; inhibition at 1000 μmol/L ([12]; human): 63 to 88%
			CCCCC1(O)OC(=O)C2=C1CCC=C2 (centres unmarked) [X7, senkyunolide G]	3%	500 nM	0.10 L/kg	2.3 h	Hepatic glucuronidation	Poor UGT substrate	10.7	1.5	Good	Inhibition of OAT1 ([14]; 100 μmol/L): > 50%; IC50 ([14]; read-out: IC50, OAT1 [PAH], mean ± SD (n = 3)): 11 ± 3 µM; Inhibition of OAT2 ([15]; 100 μmol/L): > 50%; IC50 ([15]; read-out: IC50, OAT2 [prostaglandin F2α], mean ± SD (n = 3)): 51 ± 5 µM; mRNA-T/U ratio, CYP2B6 [16]: 4.0 to 9.6; mRNA-T/U ratio, CYP3A4 [17]: 4.0 to 9.6

Compound	Inhibition DDI index, OATP1B3 [2]	IC50 [10]	IC50 [12]	fu-p (unbound fraction in plasma) [5]	Cmax [5]	VSS [5]	t1/2 [5]	Major elimination route [5]	Related metabolism and transport data (substrate status) [6]	pKa [7]	LogD(7.4) [7]	Membrane permeability [8]	further results
CC[C@H](C)C[C@H](C)CCCCCCCCC(=O)N[C@H]1C[C@@H](O)[C@@H](NCCN)NC(=O)[C@@H]2[C@@H](O)CCN2C(=O)[C@H]([C@H](O)CCN)NC(=O)[C@H]([C@H](O)[C@@H](O)c2ccc(O)cc2)NC(=O)[C@@H]2C[C@@H](O)CN2C(=O)[C@H]([C@@H](C)O)NC1=O [A41, caspofungin]	0.35	1 µM	7 ± 2 µM										IC50 [9]: 39 ± 2 µM; inhibition at 100 μmol/L ([9]; human, cDNA-expressed UGT2B15): 60 to 88%; inhibition at 100 μmol/L [11]: > 90%; inhibition at 100 μmol/L ([12]; human): 63 to 88%
